Assay results reported in patent publication US4016159A, “Acylamino-cephem-carboxylic acids containing an amidino or guanidino group in the molecule” (Hoechst Aktiengesellschaft, priority 1973, dated 1977).
In brackets after ≈: the same amount, converted by molar mass. Read-outs that look alike come from different tables or passages of the source.

Key:
Format in all cases: cell-based
[1] = system: Staphylococcus aureus 285; test: Minimum inhibition concentration (MIC), Table 1
Description: (§1) Minimum inhibition concentration (MIC) in γ/ml
Germ: Staphylococcus aureus 285

Streptococcus D = test: Minimum inhibition concentration (MIC), Table 4; details: Germ: Streptococcus D; for MIC: Streptococcus, read-out: Minimum inhibition concentration (MIC)
Description: as §1

Streptococcus pyogenes A = test: Minimum inhibition concentration (MIC), Table 3; details: Germ: Streptococcus pyogenes A; for MIC: read-out: Minimum inhibition concentration MIC
Description: Minimum inhibition concentration MIC in γ/ml
Germ: Streptococcus pyogenes A

[2] = Staphylococcus aureus, 285, Germ: Staphylococcus aureus 285, read-out: Minimum inhibition concentration (MIC)
[3] = Staphylococcus aureus, 285, read-out: Minimum inhibition concentration (MIC)

Compound | MIC [1, 2] | MIC (Streptococcus D) | MIC (Streptococcus pyogenes A) | also measured
3-[(5-methyl-1,3,4-thiadiazole-2-yl)-thiomethyl]-7-[4-(imidazoline-2-yl)-2-methoxyphenoxy-acetamido]-Δ3-cephem-4-carboxylic acid [Example 126] | – | – | – | Minimum inhibition concentration (MIC) ([1]; Germ: Staphylococcus aureus 285): 0.5 to 1.25 µg/mL; Minimum inhibition concentration (MIC) (Streptococcus D): 10 to 50 µg/mL; Minimum inhibition concentration (MIC) (Streptococcus pyogenes A): 0.008 to 0.0156 µg/mL
CC1(C)S[C@@H]2[C@H](NC(=O)[C@H](N)c3ccccc3)C(=O)N2[C@H]1C(=O)O [Ampicillin, reference compound] | 100 µg/mL (≈ 286 µM) | – | – | –
Cc1nnc(SCC2=C(C(=O)O)N3C(=O)[C@@H](NC(=O)Cn4cnnn4)[C@H]3SC2)s1 [Cephazolin, reference compound] | – | 100 µg/mL (≈ 220 µM) | – | –
Cc1csc(SCC2=C(C(=O)O)N3C(=O)C(NC(=O)Cc4ccc(NC(=N)N)cc4)C3SC2)n1 (stereo not shown) [Example 7] | 0.5 to 1.25 µg/mL (≈ 0.964 to 2.41 µM) | 10 to 50 µg/mL (≈ 19.3 to 96.4 µM) | – | –
Cc1csc(SCC2=C(C(=O)O)N3C(=O)C(NC(=O)Cc4ccc(C5=NCCN5)cc4)C3SC2)n1 (stereo not shown) [Example 10, 3-[(4-methyl-thiazole-2-yl)-thiomethyl]-7-[4-(imidazoline-2-yl)-phenylacetamido]-Δ 3-cephem-4-carboxylic acid] | 0.5 to 1.25 µg/mL (≈ 0.944 to 2.36 µM) | 10 to 50 µg/mL (≈ 18.9 to 94.4 µM) | 0.000391 to 0.0078 µg/mL (≈ 0.000738 to 0.0147 µM) | –
Cc1csc(SCC2=C(C(=O)O)N3C(=O)C(NC(=O)Cc4ccc(C5=NCCCN5)cc4)C3SC2)n1 (stereo not shown) [Example 15, 3-[(4-methyl-thiazole-2-yl)-thiomethyl]-7-[4-(1,4,5,6-tetrahydropyrimide-2-yl)-phenylacetamido]-Δ 3-cephem-4-carboxylic acid] | 1.6 to 2.5 µg/mL (≈ 2.94 to 4.6 µM) | 10 to 50 µg/mL (≈ 18.4 to 92 µM) | – | –
Cc1n[nH]c(SCC2=C(C(=O)O)N3C(=O)C(NC(=O)Cc4ccc(C5=NCCCN5)cc4)C3SC2)n1 (stereo not shown) [Example 17, 3-[(methyl-1,2,4,-triazole-3-yl)-thiomethyl]-7-[4-(1,4,5,6-tetrahydropyrimide-2-yl)-phenylacetamido]-Δ 3-cephem-4-carboxylic acid] | 1.6 to 2.5 µg/mL (≈ 3.03 to 4.74 µM) | 10 to 50 µg/mL (≈ 19 to 94.8 µM) | – | –
N=C(N)c1ccc(OCC(=O)NC2C(=O)N3C(C(=O)O)=C(CSC4=NCCS4)CSC23)cc1 (stereo not shown) [Example 30, 3-[(Δ2-thiazolidine-2-yl)-thiomethyl]-7-(4-amidinophenoxyacetamido)-Δ3-cephem-4-carboxylic acid] | 0.5 to 1.25 µg/mL (≈ 0.985 to 2.46 µM) | 10 to 50 µg/mL (≈ 19.7 to 98.5 µM) | 0.000391 to 0.0078 µg/mL (≈ 0.00077 to 0.0154 µM) | –
CCCc1nnc(SCC2=C(C(=O)O)N3C(=O)C(NC(=O)COc4ccc(C5=NCCN5)cc4)C3SC2)s1 (stereo not shown) [Example 37, 3-[(5-n-propyl-1,3,4-thiadiazole-2-yl)-thiomethyl]-7-[4-(imidazoline-2-yl)-phenoxyacetamido]-Δ 3-cephem-4-carboxylic acid] | 0.5 to 1.25 µg/mL (≈ 0.87 to 2.18 µM) | 0.196 to 6.25 µg/mL (≈ 0.341 to 10.9 µM) | 0.000391 to 0.0078 µg/mL (≈ 0.00068 to 0.0136 µM) | –
CCCc1nnc(SCC2=C(C(=O)O)N3C(=O)C(NC(=O)COc4ccc(C(=N)N)cc4)C3SC2)o1 (stereo not shown) [Example 40, 3-[(5-n-propyl-1,3,4-oxadiazole-2-yl)-thiomethyl]-7-(4-amidinophenoxyacetamido)-Δ 3-cephem-4-carboxylic acid] | 0.156 to 0.391 µg/mL (≈ 0.293 to 0.734 µM) | – | 0.008 to 0.0156 µg/mL (≈ 0.015 to 0.0293 µM) | –
CCCc1nnc(SCC2=C(C(=O)O)N3C(=O)C(NC(=O)COc4ccc(C5=NCCN5)cc4)C3SC2)o1 (stereo not shown) [Example 41, 3-[(5-n-propyl-1,3,4-oxadiazole-2-yl)-thiomethyl]-7-[4-(imidazoline-2-yl)-phenoxyacetamido]-Δ 3-cephem-4-carboxylic acid] | 0.5 to 1.25 µg/mL (≈ 0.895 to 2.24 µM) | 10 to 50 µg/mL (≈ 17.9 to 89.5 µM) | 0.000391 to 0.0078 µg/mL (≈ 0.0007 to 0.014 µM) | –
Cc1nnc(SCC2=C(C(=O)O)N3C(=O)C(NC(=O)Cc4ccc(C(=N)N)cc4)C3SC2)s1 (stereo not shown) [Example 45, 3-[(5-methyl-1,3,4-thiadiazole-2-yl)-thiomethyl]-7-(4-amidinophenylacetamido)-Δ 3-cephem-4-carboxylic acid] | 0.156 to 0.391 µg/mL (≈ 0.309 to 0.775 µM) | – | 0.000391 to 0.0078 µg/mL (≈ 0.000775 to 0.0155 µM) | –
N=C(N)c1ccc(OCC(=O)NC2C(=O)N3C(C(=O)O)=C(CSc4nnc(-c5ccccc5)o4)CSC23)cc1 (stereo not shown) [Example 48, 3-[(5-phenyl-1,3,4-oxadiazole-2-yl)-thiomethyl]-7-(4-amidinophenoxyacetamido)-Δ 3-cephem-4-carboxylic acid] | 0.156 to 0.391 µg/mL (≈ 0.275 to 0.69 µM) | – | – | Minimum inhibition concentration (MIC) (Streptococcus D): 0.196 to 6.25 µg/mL
N=C(N)c1ccc(CC(=O)NC2C(=O)N3C(C(=O)O)=C(CSc4nnc(N)s4)CSC23)cc1 (stereo not shown) [Example 59, 3-[(5-amino-1,3,4-thiadiazole-2-yl)-thiomethyl]-7-(4-amidinophenylacetamido)-Δ 3-cephem-4-carboxlic acid] | 0.5 to 1.25 µg/mL (≈ 0.989 to 2.47 µM) | 10 to 50 µg/mL (≈ 19.8 to 98.9 µM) | 0.000391 to 0.0078 µg/mL (≈ 0.000773 to 0.0154 µM) | –
CCCCc1nnc(SCC2=C(C(=O)O)N3C(=O)C(NC(=O)COc4ccc(C(=N)N)cc4)C3SC2)o1 (stereo not shown) [Example 66, 3-[(5-n-butyl-1,3,4-oxadiazole-2-yl)-thiomethyl]-7-(4-amidinophenoxyacetamido)-Δ 3-cephem-4-carboxylic acid] | 0.5 to 1.25 µg/mL (≈ 0.915 to 2.29 µM) | – | 0.008 to 0.0156 µg/mL (≈ 0.0146 to 0.0285 µM) | –
CCCCc1nnc(SCC2=C(C(=O)O)N3C(=O)C(NC(=O)COc4ccc(C(=N)N)cc4)C3SC2)s1 (stereo not shown) [Example 67, 3-[(5-n-butyl-1,3,4-thiadiazole-2-yl)-thiomethyl]-7-(4-amidinophenoxyacetamido)-Δ 3-cephem-4-carboxylic acid] | 0.5 to 1.25 µg/mL (≈ 0.889 to 2.22 µM) | – | – | –
Cc1nnc(SCC2=C(C(=O)O)N3C(=O)C(NC(=O)COc4ccc(C5=NCCN5)cc4)C3SC2)o1 (stereo not shown) [Example 74, 3-[(5-methyl-1,3,4-oxadiazole-2-yl)-thiomethyl]-7-[4-(imidazoline-2-yl)-phenoxyacetamido]-Δ 3-cephem-4-carboxylic acid] | 0.5 to 1.25 µg/mL (≈ 0.942 to 2.36 µM) | – | 0.008 to 0.0156 µg/mL (≈ 0.0151 to 0.0294 µM) | –
Cc1nnc(SCC2=C(C(=O)O)N3C(=O)C(NC(=O)COc4ccc(C5=NCCCN5)cc4)C3SC2)o1 (stereo not shown) [Example 76, 3-[(5-methyl-1,3,4-oxadiazole-2-yl)-thiomethyl]-7-[4-(1,4,5,6-tetrahydropyrimide-2-yl)-phenoxy-acetamido]-Δ 3-cephem-4-carboxylic acid] | 0.5 to 1.25 µg/mL (≈ 0.918 to 2.3 µM) | 10 to 50 µg/mL (≈ 18.4 to 91.8 µM) | – | –
CCCCc1nnc(SCC2=C(C(=O)O)N3C(=O)C(NC(=O)Cc4ccc(C5=NCCCN5)cc4)C3SC2)s1 (stereo not shown) [Example 77, 3-[(5-n-butyl-1,3,4-thiadiazole-2-yl)-thiomethyl]-7-[4-(1,4,5,6-tetrahydropyrimide-2-yl)-phenylacetamido]-Δ 3-cephem-4-carboxylic acid] | 0.5 to 1.25 µg/mL (≈ 0.852 to 2.13 µM) | – | 0.008 to 0.0156 µg/mL (≈ 0.0136 to 0.0266 µM) | –
Cc1nnc(SCC2=C(C(=O)O)N3C(=O)C(NC(=O)Cc4ccc(C5=NCCCN5)cc4)C3SC2)o1 (stereo not shown) [Example 78, 3-[(5-methyl-1,3,4-oxadiazole-2-yl)-thiomethyl]-[4-(1,4,5,6-tetrahydropyrimide-2-yl)-phenylacetamido]-Δ 3-cephem-4-carboxylic acid] | 0.5 to 1.25 µg/mL (≈ 0.946 to 2.36 µM) | – | 0.008 to 0.0156 µg/mL (≈ 0.0151 to 0.0295 µM) | –
Cn1nnnc1SCC1=C(C(=O)O)N2C(=O)C(NC(=O)Cc3ccc(C4=NCCCN4)cc3)C2SC1 (stereo not shown) [Example 87, 3-[(1-methyl-1H-tetrazole-5-yl)-thiomethyl]-7-[4-(1,4,5,6-tetrahydropyrimide-2-yl)-phenylacetamido]-Δ 3-cephem-4-carboxylic acid] | 1.6 to 2.5 µg/mL (≈ 3.03 to 4.73 µM) | – | – | –
N=C(N)c1ccc(CC(=O)NC2C(=O)N3C(C(=O)O)=C(CSC4=NCCS4)CSC23)cc1 (stereo not shown) [Example 90, 3-[2-thiazoline-2-yl-thiomethyl]-7-[4-amidino-phenylacetamido]-Δ 3-cephem-4-carboxylic acid] | 0.156 to 0.391 µg/mL (≈ 0.317 to 0.795 µM) | – | 0.000391 to 0.0078 µg/mL (≈ 0.000795 to 0.0159 µM) | –
Cn1nnnc1SCC1=C(C(=O)O)N2C(=O)C(NC(=O)COc3ccc(C4=NCCCN4)cc3)C2SC1 (stereo not shown) [Example 93, 3-[(1-methyl-1-H-tetrazol-5-yl)-thiomethyl]-7-[4-(1,4,5,6-tetrahydropyrimide-2-yl)-phenoxyacetamido-]-Δ3-cephem-4-carboxylic acid] | – | 10 to 50 µg/mL (≈ 18.4 to 91.8 µM) | – | –
CCc1nnc(SCC2=C(C(=O)O)N3C(=O)C(NC(=O)Cc4ccc(C5=NCCCN5)cc4)C3SC2)n1N (stereo not shown) [Example 104, 3-[(4-amino-5-ethyl-1,2,4-triazole-3-yl)-thiomethyl]-7-[4-(1,4,5,6-tetrahydropyrimide-2-yl)-phenylacetamido-] -Δ3-cephem-4-carboxylic acid] | 1.6 to 2.5 µg/mL (≈ 2.87 to 4.49 µM) | – | – | –
Cn1ccnc1SCC1=C(C(=O)O)N2C(=O)C(NC(=O)Cc3ccc(C4=NCCN4)cc3)C2SC1 (stereo not shown) [Example 123, 3-[(1-methylimidazole-2-yl)-thiomethyl]-7-[4-(imidazoline-2-yl)-phenylacetamido]-Δ 3-cephem-4-carboxylic acid] | 1.6 to 2.5 µg/mL (≈ 3.12 to 4.88 µM) | – | – | –
COc1cc(C(=N)N)ccc1OCC(=O)NC1C(=O)N2C(C(=O)O)=C(CSc3nccs3)CSC12 (stereo not shown) [Example 129, 3-[(1,3-thiazole-2-yl)thiomethyl]-7-(4-amidino-2-methoxy-phenoxyacetamido)-Δ3-cephem-4-carboxylic acid] | 0.156 to 0.391 µg/mL (≈ 0.291 to 0.73 µM) | – | 0.008 to 0.0156 µg/mL (≈ 0.0149 to 0.0291 µM) | –
COc1cc(C(=N)N)ccc1OCC(=O)NC1C(=O)N2C(C(=O)O)=C(CSc3nc(C)cs3)CSC12 (stereo not shown) [Example 130, 3-[(4-methyl-1,3-thiazole-2-yl)-thiomethyl]-7-(4-amidino-2-methoxy-phenoxyacetamido)-Δ3-cephem-4-carboxylic acid] | 0.156 to 0.391 µg/mL (≈ 0.284 to 0.711 µM) | – | 0.008 to 0.0156 µg/mL (≈ 0.0146 to 0.0284 µM) | –
CC1(C)S[C@@H]2[C@H](NC(=O)Cc3ccccc3)C(=O)N2[C@H]1C(=O)O [Penicillin-G-Na, reference compound] | – | – | – | MIC [1, 3]: 125 µg/mL (≈ 374 µM)
CC1(C)S[C@@H]2[C@H](NC(=O)COc3ccccc3)C(=O)N2[C@H]1C(=O)O [Penicillin-V-K, reference compound] | – | – | – | MIC [1, 3]: 125 µg/mL (≈ 357 µM)
